Measured values as given in patent US20240425491A1, “HETEROARYL COMPOUNDS USEFUL IN THE TREATMENT OF COGNITIVE DISORDERS” (University College Cardiff Consultants Limited, priority 2021, published 2024).
Where a name gives a salt, the structure may show the parent alone.

Each compound was assayed against T1, human recombinant GABAAR containing α5β3γ2 subunits (benzodiazepine site) (Homo sapiens, UniProt P18507+P31644) (assay: In vitro radioligand binding assay (α5-GABAAR Ki)). Details: inhibition of [3H]Ro15-1788 binding, membranes of L(tk−) cells expressing human α5β3γ2; read-out: α5-GABAAR Ki.
T1 construct: expressed in transfected cells; host or cells: mouse L(tk−) cells, dexamethasone-inducible vector pMSGneo
T1 sequence (P31644 32-462): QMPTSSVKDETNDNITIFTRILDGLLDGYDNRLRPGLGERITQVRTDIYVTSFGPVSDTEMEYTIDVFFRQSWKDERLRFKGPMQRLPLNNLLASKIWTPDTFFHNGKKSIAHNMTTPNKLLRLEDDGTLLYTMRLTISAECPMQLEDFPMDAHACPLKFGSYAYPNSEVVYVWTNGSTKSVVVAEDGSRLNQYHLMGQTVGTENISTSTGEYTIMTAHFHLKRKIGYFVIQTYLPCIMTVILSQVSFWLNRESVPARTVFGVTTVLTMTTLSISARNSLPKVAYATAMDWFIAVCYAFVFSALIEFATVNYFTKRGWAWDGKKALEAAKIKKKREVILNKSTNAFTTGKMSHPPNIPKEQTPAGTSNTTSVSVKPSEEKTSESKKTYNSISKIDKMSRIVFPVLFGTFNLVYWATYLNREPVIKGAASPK
T1 sequence (P28472 26-473 partner): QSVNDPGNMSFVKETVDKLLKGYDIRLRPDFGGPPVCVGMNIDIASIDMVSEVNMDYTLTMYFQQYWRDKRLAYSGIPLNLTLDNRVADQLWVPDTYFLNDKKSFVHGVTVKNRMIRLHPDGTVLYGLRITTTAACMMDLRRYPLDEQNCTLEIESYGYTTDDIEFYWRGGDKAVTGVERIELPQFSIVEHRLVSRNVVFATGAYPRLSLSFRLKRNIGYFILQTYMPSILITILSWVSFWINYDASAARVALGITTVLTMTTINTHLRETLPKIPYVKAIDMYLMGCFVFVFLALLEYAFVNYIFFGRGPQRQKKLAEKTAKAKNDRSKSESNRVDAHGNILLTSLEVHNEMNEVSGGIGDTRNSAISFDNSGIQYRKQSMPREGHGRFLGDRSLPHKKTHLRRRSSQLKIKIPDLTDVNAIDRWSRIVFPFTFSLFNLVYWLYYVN
T1 sequence (P18507 40-475): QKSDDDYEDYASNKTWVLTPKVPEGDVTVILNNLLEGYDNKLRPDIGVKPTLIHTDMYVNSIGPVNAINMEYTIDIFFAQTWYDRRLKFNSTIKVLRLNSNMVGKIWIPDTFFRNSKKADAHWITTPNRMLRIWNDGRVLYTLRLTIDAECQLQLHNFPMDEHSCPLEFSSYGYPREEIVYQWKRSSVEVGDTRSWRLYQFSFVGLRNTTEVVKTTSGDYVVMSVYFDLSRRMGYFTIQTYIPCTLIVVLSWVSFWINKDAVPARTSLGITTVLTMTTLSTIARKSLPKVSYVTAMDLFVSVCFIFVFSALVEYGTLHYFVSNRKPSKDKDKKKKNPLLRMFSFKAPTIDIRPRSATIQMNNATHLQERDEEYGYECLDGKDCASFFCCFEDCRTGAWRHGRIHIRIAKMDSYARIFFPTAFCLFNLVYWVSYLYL
Source text: Mouse L(tk^−) cells stably expressing human α1β3γ2, α2β3γ2, α3β3γ2, α5β3γ2 GABAARs generated by transfection of the individual subunits in the dexamethasone-inducible expression vector pMSGneo in mouse L(tk^−) cells (Hadingham et al., 1993, Mol. Pharmacol. 43:970-975 and 1993, Mol. Pharmacol. 44:1211-1218) were used for binding and functional assays. For certain compounds, HEK293 cells stable expressing the human α1β3γ2L, α2β3γ2L, α3β3γ2L and α5β3γ2L GABAA receptors were used to evaluate their functional effects in a SyncroPatch electrophysiology assay.
L(tk^−) cells stably expressing human α1β3γ2, α2β3γ2, α3β3γ2, α5β3γ2 GABAARs were maintained in DMEM F12 medium supplemented with 10% Foetal Bovine Serum, 1% Penicillin/Streptomycin and 1 mg/mL Geneticin G418 in an incubator at 37° C. with a humidified atmosphere with 5% CO2.
The affinity (Ki) of compounds for the benzodiazepine site of human recombinant GABAARs was measured by their ability to inhibit the binding of the selective benzodiazepine antagonist [^3H] Ro15-1788 ([^3H] flumazenil).
L(tk^−) cells expressing human recombinant GABAAR containing α1β3γ2, α2β3γ2, α3β3γ2, α5β3γ2 subunits were harvested and membranes were prepared for each receptor combination in phosphate buffer (K2PO4 10 mM, pH 7.0) (Hadingham et al. (1992) Proc. Natl. Acad. Sci. USA; 89 (14): 6378-82). Protein concentration, receptor expression and the Kd of [^3H] Ro15-1788 were determined before Ki values of compounds were evaluated. For Kd evaluation, saturation binding curves were obtained by incubating membrane with various concentrations of [^3H] Ro15-1788 (82.5 Ci/mM), with nonspecific binding measured in the presence of 1 μM TP003.
For Ki evaluation, cell membranes were incubated with 4 nM [^3H] Ro15-1788 along with a range of concentrations of test compound. Nonspecific binding was determined using 1 μM TP003. All incubations were performed for 1 hour at 4° C. in assay buffer. The total assay volume was 0.5 mL, containing 100 μg membrane protein/well α1β3γ2, α2β3γ2, α3β3γ2 and 50 μg membrane protein/well for α53γ2. Incubations were terminated by filtration and washing with ice cold Tris-HCl buffer (50 mM, pH=7.4) over Whatman GF/B filters and the radioactivity of the filters was measured using liquid scintillation counting.
The % inhibition of [^3H] Ro15-1788 binding was plotted as a function of compound concentration and the IC50 calculated. From the IC50, the affinity (Ki) was calculated using the method of Cheng and Prusoff using the Kd values obtained for [^3H] Ro15-1788.

Ki	Structure (SMILES)
2.6 nM	COc1nc(-c2ccc3c(=O)[nH]ncc3c2)ccc1NC(=O)c1c(-c2ccccc2)noc1C [Example 117, N-(2-Methoxy-6-(1-oxo-1,2-dihydrophthalazin-6-yl)pyridin-3-yl)-5-methyl-3-phenylisoxazole-4-carboxamide]
137 nM	COc1nc(-c2cnc3[nH]ccc3c2)ccc1NC(=O)c1c(-c2ccccc2)noc1C [Example 118, N-(2-Methoxy-6-(1H-pyrrolo[2,3-b]pyridin-5-yl)pyridin-3-yl)-5-methyl-3-phenylisoxazole-4-carboxamide]
126 nM	COc1nc(-c2nn[nH]n2)ccc1NC(=O)c1c(-c2ccccc2)noc1C [Example 122, N-[2-Methoxy-6-(2H-tetrazol-5-yl)-3-pyridyl]-5-methyl-3-phenyl-isoxazole-4-carboxamide]
51.9 nM	CCOC(=O)Cn1c(-c2ccc(NC(=O)c3c(-c4ccccc4)noc3C)c(OC)n2)cnc1C [Example 134, Ethyl 2-[5-[6-methoxy-5-[(5-methyl-3-phenyl-isoxazole-4-carbonyl)amino]-2-pyridyl]-2-methyl-imidazol-1-yl] acetate]
79 nM	COc1nc(-n2ccnc2)ccc1NC(=O)c1c(-c2ccccn2)noc1C [Example 146, N-(6-Imidazol-1-yl-2-methoxy-3-pyridyl)-5-methyl-3-(2-pyridyl) isoxazole-4-carboxamide]
45.8 nM	COc1nc(-c2cncnc2)ccc1NC(=O)c1c(C)nnn1-c1ccccc1 [Example 157, N-(2-Methoxy-6-(pyrimidin-5-yl)pyridin-3-yl)-4-methyl-1-phenyl-1H-1,2,3-triazole-5-carboxamide]
8.4 nM	COc1nc(-c2cncc(OC(F)F)c2)cnc1NC(=O)c1c(-c2ccccc2)noc1C [Example 158, N-[5-[5-(Difluoromethoxy)-3-pyridyl]-3-methoxy-pyrazin-2-yl]-5-methyl-3-phenyl-isoxazole-4-carboxamide]
545 nM	CNc1nc(-n2ccnc2)ccc1NC(=O)c1c(-c2ccccc2)noc1C [Example 177, N-(6-(1H-Imidazol-1-yl)-2-(methylamino)pyridin-3-yl)-5-methyl-3-phenylisoxazole-4-carboxamide]
8.8 nM	COc1nc(-c2ccc(CN)cc2)ccc1NC(=O)c1c(-c2ccccc2)noc1C [Example 182, N-[6-[4-(Aminomethyl)phenyl]-2-methoxy-3-pyridyl]-5-methyl-3-phenyl-isoxazole-4-carboxamide hydrochloride]
1.3 nM	COc1ncc(-c2ccc(NC(=O)c3c(-c4ccccc4)noc3C)c(OC)n2)c(C)n1 [Example 191, N-[2-Methoxy-6-(2-methoxy-4-methyl-pyrimidin-5-yl)-3-pyridyl]-5-methyl-3-phenyl-isoxazole-4-carboxamide]
1.2 nM	CNc1ncc(-c2ccc(NC(=O)c3c(-c4ccccc4)noc3C)c(OC)n2)c(C)n1 [Example 192, N-[2-Methoxy-6-[4-methyl-2-(methylamino)pyrimidin-5-yl]-3-pyridyl]-5-methyl-3-phenyl-isoxazole-4-carboxamide]
22.9 nM	COc1nc(C)c(-c2ccc(NC(=O)c3c(-c4ccccc4)noc3C)c(OC)n2)c(C)n1 [Example 193, N-[2-Methoxy-6-(2-methoxy-4,6-dimethyl-pyrimidin-5-yl)-3-pyridyl]-5-methyl-3-phenyl-isoxazole-4-carboxamide]
38.7 nM	CNc1nc(C)c(-c2ccc(NC(=O)c3c(-c4ccccc4)noc3C)c(OC)n2)c(C)n1 [Example 194, N-(6-(4,6-Dimethyl-2-(methylamino)pyrimidin-5-yl)-2-methoxypyridin-3-yl)-5-methyl-3-phenylisoxazole-4-carboxamide]
23.5 nM	COc1nc(-c2nnc3n2CCN(C)C3)ccc1NC(=O)c1c(-c2ccccc2)noc1C [Example 195, N-(2-Methoxy-6-(7-methyl-5,6,7,8-tetrahydro-[1,2,4]triazolo[4,3-a]pyrazin-3-yl)pyridin-3-yl)-5-methyl-3-phenylisoxazole-4-carboxamide]
0.4 nM	COc1cc(-c2cnc(N)nc2)ccc1NC(=O)c1c(-c2ccccc2)noc1C [Example 197, N-[4-(2-Aminopyrimidin-5-yl)-2-methoxy-phenyl]-5-methyl-3-phenyl-isoxazole-4-carboxamide hydrochloride]
4.3 nM	COc1cc(-c2cnc(N)cn2)ccc1NC(=O)c1c(-c2ccccc2)noc1C [Example 198, N-[4-(5-Aminopyrazin-2-yl)-2-methoxy-phenyl]-5-methyl-3-phenyl-isoxazole-4-carboxamide hydrochloride]
35.4 nM	COc1nc(-c2cnc(C(C)(C)O)nc2)ccc1NC(=O)c1c(-c2ccccc2)noc1C [Example 201, N-[6-[2-(1-Hydroxy-1-methyl-ethyl)pyrimidin-5-yl]-2-methoxy-3-pyridyl]-5-methyl-3-phenyl-isoxazole-4-carboxamide]
77.8 nM	COc1nc(-c2cnc(CN)nc2)ccc1NC(=O)c1c(-c2ccccn2)nnn1C [Example 202, N-(6-(2-(Aminomethyl)pyrimidin-5-yl)-2-methoxypyridin-3-yl)-1-methyl-4-(pyridin-2-yl)-1H-1,2,3-triazole-5-carboxamide hydrochloride]
17 nM	COc1nc(-c2cnc(CN)nc2)ccc1NC(=O)c1c(-c2ccc(Cl)cn2)nnn1C [Example 203, N-(6-(2-(Aminomethyl)pyrimidine-5-yl)-2-methoxypyridin-3-yl)-4-(5-chloropyridin-2-yl)-1-methyl-1H-1,2,3-triazole-5-carboxamide hydrochloride]
13.7 nM	COc1nc(-c2cnoc2)ccc1NC(=O)c1c(-c2ccc(F)cc2)noc1N1CCC1 [Example 210, 5-(Azetidin-1-yl)-3-(4-fluorophenyl)-N-(6-isoxazol-4-yl-2-methoxy-3-pyridyl) isoxazole-4-carboxamide]
1.3 nM	COc1nc(-c2cnc(CN)nc2)ccc1NC(=O)c1c(-c2ccc(F)cc2)noc1NCCCCl [Example 211, N-[6-[2-(Aminomethyl)pyrimidin-5-yl]-2-methoxy-3-pyridyl]-5-(3-chloropropylamino)-3-(4-fluorophenyl) isoxazole-4-carboxamide hydrochloride]
313 nM	Cc1onc(-c2ccccc2)c1C(=O)Nc1ccc(-n2ccnc2)[nH]c1=O [Example 212, N-(6-Imidazol-1-yl-2-oxo-1H-pyridin-3-yl)-5-methyl-3-phenyl-isoxazole-4-carboxamide]
3.4 nM	COc1nc(-c2ccc(C=O)cc2)ccc1NC(=O)c1c(-c2ccccc2)noc1C [Example 220, N-[6-(4-formylphenyl)-2-methoxy-3-pyridyl]-5-methyl-3-phenyl-isoxazole-4-carboxamide]
220 nM	COc1nc(-c2ccc(CCl)cc2)ccc1NC(=O)c1c(-c2ccccc2)noc1C [Example 224, N-[6-[4-(chloromethyl)phenyl]-2-methoxy-3-pyridyl]-5-methyl-3-phenyl-isoxazole-4-carboxamide]
7.7 nM	COc1nc(-c2ccc(CN3CCOCC3)cc2)ccc1NC(=O)c1c(-c2ccccc2)noc1C [Example 225, N-[2-methoxy-6-[4-(morpholinomethyl)phenyl]-3-pyridyl]-5-methyl-3-phenyl-isoxazole-4-carboxamide]
3.3 nM	COc1nc(-c2ccc(CN3CC4(COC4)C3)cc2)ccc1NC(=O)c1c(-c2ccccc2)noc1C [Example 226, N-[2-methoxy-6-[4-(2-oxa-6-azaspiro[3.3]heptan-6-ylmethyl)phenyl]-3-pyridyl]-5-methyl-3-phenyl-isoxazole-4-carboxamide]
0.5 nM	Cc1onc(-c2ccccc2)c1C(=O)Nc1ccc(-c2cnoc2)nc1OC(C)C [Example 227, N-(2-isopropoxy-6-(isoxazol-4-yl)pyridin-3-yl)-5-methyl-3-phenyl-isoxazole-4-carboxamide]
7 nM	COc1nc(-c2ccc(CN3CC4COCC4C3)cc2)ccc1NC(=O)c1c(-c2ccccc2)noc1C (stereo not shown) [Example 233, N-(2-methoxy-6-(4-((tetrahydro-1H-furo[3,4-c]pyrrol-5 (3H)-yl)methyl)phenyl)pyridin-3-yl)-5-methyl-3-phenylisoxazole-4-carboxamide]
